Here are results for 16 molecules from patent publication EP4574212A1, “HISTONE DEACETYLASE INHIBITORS” (Centre National de la Recherche Scientifique, priority 2023, dated 2025).

Test [1] concerns HDAC. The test is described as follows: Fluorescence-based HDAC inhibition assay in solution using HeLa nuclear extracts. The format is biochemical.
For test [2], the system named is HDAC. Described as above.
Method: Compound HDAC inhibition activities were determined with a fluorescence-based assay in solution, using HeLa nuclear extracts purchased from IpraCell. […] Trypsin solution was then added (0.29 µg/µl final concentration) to release AMC adduct of non-acetylated peptides. After 15 min incubation at room temperature 150 µl of absolute ethanol were added and AMC-fluorescence level was measured on a Safas Xenius spectrofluorometer (λexc./λem. = 380/460 nm).
[3] abbreviates: benzamide-based multivalent HDACi, procedure of Example 8 (HeLa nuclear extracts, TosGPK(Ac)-AMC substrate).
Where [4] appears, read: hydroxamic acid-based multivalent HDACi, HeLa nuclear extracts, TosGPK(Ac)-AMC substrate 43 µM, 45 min at 37 °C, average of at least 2 experiments.

Peptide text beside a SMILES is read from it. * marks the point of attachment. X1 = Nc1ccccc1NC(=O)c1ccc(CC(=O)*)cc1

Molecule `Nc1ccccc1NC(=O)c1ccc(CNC(=O)OCc2cccnc2)cc1` [MS275, reference compound] showed an EC50 in the test on HDAC [1] (setting [3]) of 7.23 ± 2.07 µM. In the test with HDAC [2] (setting [4]), `C[C@@H]1NC(=O)[C@H](CCCCNC(=O)CCCCCCC(=O)NO)NC(=O)CNC(=O)[C@@H]2CCCN2C(=O)[C@H](CCCCNC(=O)CCCCCCC(=O)NO)NC(=O)[C@H](C)NC(=O)[C@H](CCCCNC(=O)CCCCCCC(=O)NO)NC(=O)CNC(=O)[C@@H]2CCCN2C(=O)[C@H](CCCCNC(=O)CCCCCCC(=O)NO)NC1=O` [MuH2120, RAFT-(methyl 8-(hydroxyamino)-8-oxooctanoate)4] had an EC50 of 2.84 µM. As for `C[C@@H]1NC(=O)[C@H](CCCCNC(=O)CCCCCCC(=O)NO)NC(=O)CNC(=O)[C@@H]2CCCN2C(=O)[C@H](CCCCNC(=O)CCCCCCC(=O)NO)NC(=O)[C@H](C)NC(=O)[C@H](CCCCNC(=O)CCCCCCC(=O)NO)NC(=O)CNC(=O)[C@@H]2CCCN2C(=O)[C@H](CCCCNC(=O)CCCCCCC(=O)NO)NC1=O` [MuH2121, RAFT-(methyl 8-(hydroxyamino)-8-oxooctanoate)4], in the test on HDAC [2] (setting [4]), the response was half-maximal at 5.76 µM (EC50). The molecule `C[C@@H]1NC(=O)CNC(=O)[C@@H]2CCCN2C(=O)[C@H](CCCCNC(=O)Cc2ccc(C(=O)Nc3ccccc3N)cc2)NC(=O)[C@H](C)NC(=O)[C@H](C)NC(=O)CNC(=O)[C@@H]2CCCN2C(=O)[C@H](CCCCNC(=O)Cc2ccc(C(=O)Nc3ccccc3N)cc2)NC(=O)[C@H](C)NC1=O` [MuH2224, RAFT-(4-(2-X-2-oxoethyl)-N-(2-aminophenyl)benzamide)2] (cyclo(AAK(X1)PGAAK(X1)PG)) yielded an EC50 with HDAC [2] (setting [3]) of 7.81 ± 5.27 µM. For `Nc1ccccc1NC(=O)c1ccc(CC(=O)NCCCNC(=O)Cc2ccc(C(=O)Nc3ccccc3N)cc2)cc1` [MuH2320, 4,4'-((Propane-1,3-diylbis(azanediyl))bis(2-oxoethane-2,1-diyl))bis(N-(2-aminophenyl)benzamide)], a half-maximal effect in the test with HDAC [1] (setting [3]) (EC50) was put at 9.21 ± 2.55 µM. Take `O=C(CCCCCCc1cn(CCCCCCC(=O)NO)nn1)NO` [MuH2321, 7,7'-(1H-1,2,3-Triazole-1,4-diyl)bis(N-hydroxyheptanamide)]: it took 0.23 ± 0.16 µM to reach a half-maximal effect in the test with HDAC [1] (setting [4]) (EC50). Still for that read-out and setting: to `O=C(CCCCCCC(=O)Nc1ccccc1NC(=O)CCCCCCC(=O)NO)NO` [MuH2322, N^1,N^1'-(1,2-Phenylene)bis(N^8-hydroxyoctanediamide)] belongs 0.52 ± 0.11 µM. On the same count and under the same terms, to `O=C(CCCCCCC(=O)Nc1ccc(NC(=O)CCCCCCC(=O)NO)cc1)NO` [MuH2323, N^1,N^1'-(1,4-Phenylene)bis(N8-hydroxyoctanediamide)] belongs 0.48 ± 0.32 µM.

Consider `O=C(CCCCCCC(=O)Nc1cccc(NC(=O)CCCCCCC(=O)NO)c1)NO` [MuH2324, N^1,N^1'-(1,3-Phenylene)bis(N8-hydroxyoctanediamide)], for which, in the test on HDAC [1] (HDAC inhibition, versus monovalent inhibitor SAHA), the “increase in activity compare to the SAHA” value was found to be 14 fold. Besides, in the test with HDAC [1] (setting [4]), a half-maximal effect (EC50) was put at 0.06 ± 0.01 µM.

Regarding `O=C(CCCCCCC(=O)Nc1cc(NC(=O)CCCCCCC(=O)NO)c(NC(=O)CCCCCCC(=O)NO)cc1NC(=O)CCCCCCC(=O)NO)NO` [MuH2344, N1,N1',N1",N1‴-(Benzene-1,2,4,5-tetrayl)tetrakis(N8-hydroxyoctanediamide)], the response in the test with HDAC [1] (setting [4]) was half-maximal at 2.25 ± 0.65 µM (EC50).

In the test with HDAC [1] (setting [3]), `Nc1ccccc1NC(=O)CCCCCCC(=O)Nc1cccc(NC(=O)CCCCCCC(=O)Nc2ccccc2N)c1` [MuH2345, N^1,N^1'-(1,3-Phenylene)bis(N8-(2-aminophenyl)octanediamide)] had an EC50 of 31.5 ± 29.9 µM. With “RAFT-(4-(2-((5-X-5-oxopentyl)amino)-2-oxoethyl)-N-(2-aminophenyl)benzamide)4 [MuH2220]”, a half-maximal response in the test with HDAC [2] (setting [3]) (EC50) required 1.22 ± 0.7 µM. On the same count and under the same terms, the figure for “RAFT-(4-(2-X-2-oxoethyl)-N-(2-aminophenyl)benzamide)4 [MuH2122]” is 1.59 ± 0.87 µM. Turning to “RAFT-(4-pentyn-1-ol)4 [MuH2123, reference compound]”, in the test on HDAC [2] (setting [4]), the “EC50 (µM)” value is listed as “Inact”. The molecule “RAFT-(N-(2-aminophenyl)-4-(2-(((1-X-1H-1,2,3-triazol-4-yl)methyl)amino)-2-oxoethyl) benzamide)4 [MuH2222]” displayed an EC50 in the test on HDAC [2] (setting [3]) of 1.76 ± 0.89 µM. As to “RAFT-(N^1-(4-(2-amino-2-oxoethyl)phenyl)-N^8-hydroxyoctane diamide))2 [MuH2357]”, the concentration for a half-maximal effect (EC50) with HDAC [2] (setting [4]) is 0.23 ± 0.07 µM.

As a reminder, the EC50 is the concentration giving half of the maximal effect. Low values mean greater potency, high ones weaker potency.
